Assay results reported in article PMC8640168 (Current Research in Structural Biology, 2021).

Target: SaPgsA (Staphylococcus aureus, UniProt P63756)
Assay: […]-G3P incorporation into chloroform-soluble PGP, scintillation counting
Assay type: biochemical
Details: 1.6 mM [14C]-G3P, 100 mM MgCl2, 20 mM Triton X-100, 100 mM Tris-HCl pH 8.0, 27 C, 50 nM enzyme; detergent micelle (bulk concentration)

Substance: CDP-DAG
- Km: 400 µM
